Results: patent USRE38425E1, “Semicarbazones having CNS activity and pharmaceutical preparations containing same” (University of Saskatchewan Technologies, Inc., priority 1995, dated 2004)

Columns and labels:
mice [1] = test: MES screen after intraperitoneal injection in mice; format: in vivo; details: time t (h) per compound as in the table
rats [2] = test: MES screen after intraperitoneal injection into rats; format: in vivo; details: Rattus norvegicus, ip, 4 h
rats [3] = test: scPTZ screen after intraperitoneal administration to rats; format: in vivo; details: for protection in the scPTZ screen, rats protected: intraperitoneal administration to rats
kindled rat = kindled rat test (corneal kindled rat screen); format: in vivo, rats; details: Rattus norvegicus; read-out: ED50 (dose required to reduce seizures from stage 5 to stage 3 or less)
From the text: Particularly preferred compounds according to the present invention are 4-(4′-fluorophenoxy)benzaldehyde semicarbazone and 4-(thiophenoxy)benzaldehyde semicarbazone. […] Incidentally, the kindled rat screen is described by R. J. Racine in “Modification of Seizure Activity by Electrical Stimulation. II. Motor Seizure”, Electroencephalogr.Clin.Neurophysiol., 1972, 32, 281-294, and by G. Skeen et al. In “Development of Kindled Seizures Following Electrical Stimulation via the Cornea”, Soc.Neurosci., 1990, 16(1), 307; the disclosures of which are incorporated herein by reference.
The kindled rat test was undertaken by reported procedures (as indicated above). Compound 4b was administered orally and the animals challenged with electrical stimuli 2h later. The ED50 is the dose required to reduce seizures from stage 5 to stage 3 or less and these stages are described as follows namely stage 1 is mouth and facial clonus, stage 2 is stage 1 plus head nodding, stage 3 is stage 2 plus forelimb clonus, stage 4 is stage 3 plus rearing and stage 5 is stage 4 plus repeated rearing and falling.

[4] = system: rat livers (liver microsomal system); test: effect of chronic oral administration on rat livers; format: in vivo, rats; details: 100 mg/kg orally daily for three days; p>0.05
Procedure: Further bioevaluations of compound 4b were undertaken.
Rats were administered 100 mg/kg of 4b daily for 3 days. The livers were removed, weighed and the effect of 4b on the liver microsomal system were compared to control animals which received only the vehicle (sonicated 0.5% methylcellulose).^21-23

mice [5] = test: timed intravenous pentylenetetrazole test; format: in vivo; details: for quantity of pentylenetetrazole administered (SE) to clonus / quantity of pentylenetetrazole administered (SE) to first twitch: mice i.p.
Procedure: The times from the commencement-of the infusion until the appearances of the first twitch and also the onset of clonus were recorded for the test and control animals. […] Ten animals were used as controls and for each dose administered except for the 13 mg/kg dose of 4b in which case 9 animals were employed.

mice [6] = test: subcutaneous bicuculline test; format: in vivo
From the text: (§1) Compound 4b was also examined for protective effects after subcutaneous administration of strychnine. […] Two animals per dose were used except in the bicuculline and picrotoxin tests for 4b in which cases, 8 or 16 animals per dose were employed.

mice [7] = test: subcutaneous picrotoxin test; format: in vivo
From the text: as §1

mice [8] = test: subcutaneous strychnine test; format: in vivo; details: dose range of 13.5-108 mg/kg
From the text: as §1

epileptic chicken = epileptic chicken model (intermittent photic stimulation); format: in vivo; details: Gallus gallus; convulsions induced by intermittent photic stimulation
From the text: Two series of compounds were examined with the aim of observing whether oxygen or sulfur is a preferable spacer atom between the two aryl rings and also to compare the ED50 figures with those obtained in the rat oral and mouse intraperitoneal screens.

mice [9] = details: intraperitoneal injection in mice; time t (h) per compound as in the table
Procedure: An initial anticonvulsant evaluation of the compounds prepared according to Example 1 was undertaken by administering the compounds by the intraperitoneal route to mice. Protection and/or neurotoxicity was noted 0.5 and 4 hours after administering doses of 30, 100 and 300 mg/kg of each semicarbazone to the animals.
Doses of 30, 100 and 300 mg/kg were injected by the intraperitoneal route into mice and evaluated in the MES, scPTZ and neurotoxicity screens one half and four hours after administration.

rats [10] = details: rat, in vivo, ip
rats [11] = details: oral administration to rats; examined ¼-24 h; data taken from reference 1; cited from earlier work
in vivo [12] = details: mouse, ip
in vivo [13] = details: rat, po
Procedure: (§2) Initially doses of 50 mg/kg of the semicarbazones were administered.

in vivo [14] = details: rat, ip
rats [15] = test: MES screen after oral administration to rats
Procedure: The majority of the compounds were examined for oral activity in rats. Initially doses of 50 mg/kg of the semicarbazones were administered.
Evaluation of most of the semicarbazones and analogs in the MES and neurotoxicity tests after oral administration to rats was performed.

rats [16] = test: neurotoxicity screen after oral administration to rats; details: oral dosing of rats; 500 mg/kg
Procedure: as §2

[17] = TD50 dose (4b 108 mg/kg, 5g 95 mg/kg)
[18] = approximate MES ED50 dose (4b 13 mg/kg, 5g 15 mg/kg)
[19] = various doses (5g 12-96 mg/kg), given 1 h (4b) or 0.5 h (5g) before
[20] = oral administration to rats, dose 50 mg/kg, 0.25 h
[21] = oral administration to rats, dose 50 mg/kg, 0.5 h
[22] = oral administration to rats, dose 50 mg/kg, 1 h
[23] = oral administration to rats, dose 50 mg/kg, 2 h
[24] = oral administration to rats, dose 50 mg/kg, 4 h

## NC(=O)NN=Cc1ccc(Oc2ccc(F)cc2)cc1 [Compound 4b, 4-(4′-fluorophenoxy)benzaldehyde semicarbazone]
Mice [1]; Mus musculus, ip, read-out: MES screen ED50 (mg/kg), intraperitoneal injection in mice
  ED50: 15 to 25 mg/kg
Mice [1]; intraperitoneal injection in mice
  MES screen ED50: 12.86 mg/kg
Rats [2]
  ED50: 2.37 mg/kg
Rats [3]; 125 mg/kg
  protection in the scPTZ screen, rats protected: 0/2
Rats [3]; 250 mg/kg
  protection in the scPTZ screen, rats protected: 1/10
Rats [3]; rats, dose of 125 mg/kg
  protection in the scPTZ screen: did not afford protection
Rats [3]; rats, dose of 250 mg/kg
  rats protected in the scPTZ screen: 10%
Kindled rat
  ED50: 3.93 mg/kg
[4]
  differences between livers from treated and control rats (liver weights, microsomal protein yields, hepatic enzyme activities): No differences
Mice [5]; [17]
  quantity of pentylenetetrazole administered (SE) to clonus: 42.1(1.4) mg/kg
  quantity of pentylenetetrazole administered (SE) to first twitch: 32.6(0.8) mg/kg
Mice [5]; [18]
  quantity of pentylenetetrazole administered (SE) to clonus: 37.6(1.5) mg/kg
  quantity of pentylenetetrazole administered (SE) to first twitch: 32.3(1.4) mg/kg
Mice [5]; mice, dose of 108 mg/kg
  effect on time to clonus: increased the time to clonus
Mice [5]; mice, intraperitoneal doses = MES ED50 and TD50 figures, pentylenetetrazole infused after 1 h
  proconvulsant properties: Neither compound possessed this undesirable feature
Mice [6]; 54 mg/kg
  number of animals protected in the subcutaneous bicuculline test: 0/8
Mice [6]; 108 mg/kg
  number of animals protected in the subcutaneous bicuculline test: 3/8
Mice [6]; 216 mg/kg
  number of animals protected in the subcutaneous bicuculline test: 3/8
Mice [6]; [19]
  protection against convulsions induced by subcutaneous bicuculline: partial protection
Mice [7]; 27 mg/kg
  protection in the subcutaneous picrotoxin test (animals protected): 1/8
Mice [7]; 108 mg/kg
  protection in the subcutaneous picrotoxin test (animals protected): 5/16
Mice [7]; 216 mg/kg
  protection in the subcutaneous picrotoxin test (animals protected): 2/8
Mice [7]; [19]
  protection against convulsions induced by subcutaneous picrotoxin: partial protection
Mice [8]
  protection in the subcutaneous strychnine test: no protection
Epileptic chicken
  ED50: 1.5 mg/kg
Mice [9]
  acPTZ screen ED50: >54 mg/kg
Rats [10]
  slope (SE) of the TD50: 17.02(6.41)
Rats [11]
  neurotoxicity screen TD50: >500 mg/kg
In vivo [12]
  TD50: 108 mg/kg
In vivo [13]
  TD50: > 500 mg/kg
In vivo [14]
  TD50 at 4 h: 80.1 mg/kg
Rats [15]; Rattus norvegicus, po, read-out: MES screen ED50 (mg/kg), oral administration to rats, time t (h) per compound as in the table
  ED50: 1.59 mg/kg
Rats [15]; [20]
  MES screen 0.25 h: number of rats out of 4 which were protected: 2
  MES screen: number of rats out of 4 which were protected: 2
Rats [15]; [21]
  MES screen 0.5 h: number of rats out of 4 which were protected: 4
  MES screen: number of rats out of 4 which were protected: 4
Rats [15]; [22]
  MES screen 1 h: number of rats out of 4 which were protected: 4
  MES screen: number of rats out of 4 which were protected: 4
Rats [15]; [23]
  MES screen 2 h: number of rats out of 4 which were protected: 4
  MES screen: number of rats out of 4 which were protected: 4
Rats [15]; [24]
  MES screen 4 h: number of rats out of 4 which were protected: 4
  MES screen: number of rats out of 4 which were protected: 4
Rats [16]
  neurotoxicity at the maximum dose utilized: absence of neurotoxicity
